Source: ChEMBL document CHEMBL4002623, “Synthesis and in vitro activity of dicationic indolyl diphenyl ethers as novel potent antibiotic agents against drug-resistant bacteria” (Bioorg Med Chem Lett, 2017)
Converted amounts (≈) assume the structure as drawn.

Experiments:
[1] = system: Salmonella typhi; assay: Antibacterial activity against Salmonella typhi H901 by agar dilution method; assay type: functional, Salmonella enterica subsp. enterica serovar Typhi; conditions: Salmonella enterica
[2] = system: Klebsiella aerogenes; assay: Antibacterial activity against Enterobacter aerogenes 45102 by agar dilution method; assay type: functional
[3] = system: Enterococcus faecalis; assay: Antibacterial activity against vancomycin-sensitive Enterococcus faecalis 09-8 by agar dilution method; assay type: functional
[4] = system: Pseudomonas aeruginosa; assay: Antibacterial activity against Pseudomonas aeruginosa PAO1 by agar dilution method; assay type: functional
[5] = system: Staphylococcus epidermidis; assay: Antibacterial activity against methicillin-sensitive Staphylococcus epidermidis 09-9 by agar dilution method; assay type: functional
[6] = system: Serratia marcescens; assay: Antibacterial activity against Serratia marcescens 41002 by agar dilution method; assay type: functional
[7] = system: Enterococcus faecalis; assay: Antibacterial activity against vancomycin-sensitive Enterococcus faecalis ATCC 29212 by agar dilution method; assay type: functional
[8] = system: Enterococcus faecium; assay: Antibacterial activity against vancomycin-resistant Enterococcus faecium ATCC 700221 by agar dilution method; assay type: functional
[9] = system: Enterobacter cloacae; assay: Antibacterial activity against Enterobacter cloacae 45301 by agar dilution method; assay type: functional
[10] = system: Escherichia coli; assay: Antibacterial activity against extended-spectrum beta-lactamase-negative Escherichia coli 1515 by agar dilution method; assay type: functional
[11] = system: Klebsiella pneumoniae; assay: Antibacterial activity against extended-spectrum beta-lactamase-positive Klebsiella pneumoniae 09-25 by agar dilution method; assay type: functional
[12] = system: Klebsiella pneumoniae; assay: Antibacterial activity against extended-spectrum beta-lactamase-negative Klebsiella pneumoniae 09-8 by agar dilution method; assay type: functional
[13] = system: Staphylococcus aureus; assay: Antibacterial activity against methicillin-sensitive Staphylococcus aureus 15 by agar dilution method; assay type: functional
[14] = system: Proteus vulgaris; assay: Antibacterial activity against Proteus vulgaris ATCC 29905 by agar dilution method; assay type: functional
[15] = system: Proteus mirabilis; assay: Antibacterial activity against Proteus mirabilis 09-1 by agar dilution method; assay type: functional
[16] = system: Enterococcus faecium; assay: Antibacterial activity against vancomycin-sensitive Enterococcus faecium 09-10 by agar dilution method; assay type: functional
[17] = system: Enterococcus faecium; assay: Antibacterial activity against vancomycin-resistant Enterococcus faecium 05-8 by agar dilution method; assay type: functional
[18] = system: Morganella morganii; assay: Antibacterial activity against Morganella morganii ATCC 25830 by agar dilution method; assay type: functional
[19] = system: Staphylococcus aureus; assay: Antibacterial activity against methicillin-resistant Staphylococcus aureus 09-13 by agar dilution method; assay type: functional
[20] = system: Escherichia coli; assay: Antibacterial activity against extended-spectrum beta-lactamase-negative Escherichia coli ATCC 25922 by agar dilution method; assay type: functional
[21] = system: Acinetobacter calcoaceticus; assay: Antibacterial activity against Acinetobacter calcoaceticus ATCC 19606 by agar dilution method; assay type: functional
[22] = system: Escherichia coli; assay: Antibacterial activity against extended-spectrum beta-lactamase-positive Escherichia coli 09-1 by agar dilution method; assay type: functional
[23] = Cytotoxicity against HEK293T cells after 48 hrs by MTS assay; assay type: cell-based, HEK-293T; conditions: human
[24] = system: Klebsiella pneumoniae; assay: Antibacterial activity against extended-spectrum beta-lactamase-negative Klebsiella pneumoniae 7 by agar dilution method; assay type: functional
[25] = system: Pseudomonas aeruginosa; assay: Antibacterial activity against Pseudomonas aeruginosa ATCC 27853 by agar dilution method; assay type: functional
[26] = system: Providencia rettgeri; assay: Antibacterial activity against Providencia rettgeri ATCC 31052 by agar dilution method; assay type: functional
[27] = system: Klebsiella pneumoniae; assay: Antibacterial activity against extended-spectrum beta-lactamase-positive Klebsiella pneumoniae ATCC 700603 by agar dilution method; assay type: functional
[28] = system: Escherichia coli; assay: Antibacterial activity against extended-spectrum beta-lactamase-negative Escherichia coli 09-20 by agar dilution method; assay type: functional
[29] = system: Staphylococcus aureus; assay: Antibacterial activity against methicillin-resistant Staphylococcus aureus ATCC 33591 by agar dilution method; assay type: functional
[30] = system: Enterococcus faecalis; assay: Antibacterial activity against vancomycin-resistant Enterococcus faecalis ATCC 51299 by agar dilution method; assay type: functional
[31] = system: Pseudomonas aeruginosa; assay: Antibacterial activity against Pseudomonas aeruginosa 09-14 by agar dilution method; assay type: functional
[32] = system: Enterococcus faecalis; assay: Antibacterial activity against vancomycin-resistant Enterococcus faecalis 09-9 by agar dilution method; assay type: functional
[33] = system: Staphylococcus epidermidis; assay: Antibacterial activity against methicillin-sensitive Staphylococcus epidermidis ATCC 12228 by agar dilution method; assay type: functional
[34] = system: Staphylococcus aureus; assay: Antibacterial activity against methicillin-sensitive Staphylococcus aureus 09-6 by agar dilution method; assay type: functional
[35] = system: Staphylococcus epidermidis; assay: Antibacterial activity against methicillin-resistant Staphylococcus epidermidis 09-3 by agar dilution method; assay type: functional
[36] = system: Klebsiella pneumoniae; assay: Antibacterial activity against Klebsiella pneumoniae ATCC BAA-2146 expressing NDM-1 by agar dilution method; assay type: functional
[37] = system: Citrobacter freundii; assay: Antibacterial activity against Citrobacter freundii ATCC 43864 by agar dilution method; assay type: functional
[38] = system: Staphylococcus aureus; assay: Antibacterial activity against methicillin-sensitive Staphylococcus aureus ATCC 29213 by agar dilution method; assay type: functional

Compound: CC(C)NC(=N)c1ccc2cc(-c3ccc(Oc4ccc(-c5cc6ccc(C(=N)NC(C)C)cc6[nH]5)cc4)cc3)[nH]c2c1
- MIC [1]: 32 µg/mL (≈ 56.3 µM)
- MIC [2]: 64 µg/mL (≈ 113 µM)
- MIC [3]: 1 µg/mL (≈ 1.76 µM)
- MIC [4]: > 128 µg/mL
- MIC [5]: 1 µg/mL (≈ 1.76 µM)
- MIC [6]: 64 µg/mL (≈ 113 µM)
- MIC [7]: 1 µg/mL (≈ 1.76 µM)
- MIC [8]: 1 µg/mL (≈ 1.76 µM)
- MIC [9]: 64 µg/mL (≈ 113 µM)
- MIC [10]: 32 µg/mL (≈ 56.3 µM)
- MIC [11]: 64 µg/mL (≈ 113 µM)
- MIC [12]: 64 µg/mL (≈ 113 µM)
- MIC [13]: 1 µg/mL (≈ 1.76 µM)
- MIC [14]: 64 µg/mL (≈ 113 µM)
- MIC [15]: 64 µg/mL (≈ 113 µM)
- MIC [16]: 2 µg/mL (≈ 3.52 µM)
- MIC [17]: 1 µg/mL (≈ 1.76 µM)
- MIC [18]: 16 µg/mL (≈ 28.1 µM)
- MIC [19]: 1 µg/mL (≈ 1.76 µM)
- MIC [20]: 16 µg/mL (≈ 28.1 µM)
- MIC [21]: 128 µg/mL (≈ 225 µM)
- MIC [22]: 32 µg/mL (≈ 56.3 µM)
- CC50 at 48 h [23]: 7.3 µg/mL (≈ 12.8 µM)
- MIC [24]: 64 µg/mL (≈ 113 µM)
- MIC [25]: 64 µg/mL (≈ 113 µM)
- MIC [26]: 64 µg/mL (≈ 113 µM)
- MIC [27]: 64 µg/mL (≈ 113 µM)
- MIC [28]: 32 µg/mL (≈ 56.3 µM)
- MIC [29]: 1 µg/mL (≈ 1.76 µM)
- MIC [30]: 2 µg/mL (≈ 3.52 µM)
- MIC [31]: 64 µg/mL (≈ 113 µM)
- MIC [32]: 2 µg/mL (≈ 3.52 µM)
- MIC [33]: 1 µg/mL (≈ 1.76 µM)
- MIC [34]: 1 µg/mL (≈ 1.76 µM)
- MIC [35]: 1 µg/mL (≈ 1.76 µM)
- MIC [36]: 64 µg/mL (≈ 113 µM)
- MIC [37]: 64 µg/mL (≈ 113 µM)
- MIC [38]: 1 µg/mL (≈ 1.76 µM)

Compound: N=C(NC1CC1)c1ccc2cc(-c3ccc(Oc4ccc(-c5cc6ccc(C(=N)NC7CC7)cc6[nH]5)cc4)cc3)[nH]c2c1
- MIC [1]: > 128 µg/mL
- MIC [2]: 128 µg/mL (≈ 227 µM)
- MIC [3]: 4 µg/mL (≈ 7.08 µM)
- MIC [4]: > 128 µg/mL
- MIC [5]: 4 µg/mL (≈ 7.08 µM)
- MIC [6]: > 128 µg/mL
- MIC [7]: 4 µg/mL (≈ 7.08 µM)
- MIC [8]: 4 µg/mL (≈ 7.08 µM)
- MIC [9]: > 128 µg/mL
- MIC [10]: 128 µg/mL (≈ 227 µM)
- MIC [11]: > 128 µg/mL
- MIC [12]: > 128 µg/mL
- MIC [13]: 4 µg/mL (≈ 7.08 µM)
- MIC [14]: > 128 µg/mL
- MIC [15]: > 128 µg/mL
- MIC [16]: 8 µg/mL (≈ 14.2 µM)
- MIC [17]: 4 µg/mL (≈ 7.08 µM)
- MIC [18]: 128 µg/mL (≈ 227 µM)
- MIC [19]: 4 µg/mL (≈ 7.08 µM)
- MIC [20]: 128 µg/mL (≈ 227 µM)
- MIC [21]: > 128 µg/mL
- MIC [22]: 128 µg/mL (≈ 227 µM)
- CC50 at 48 h [23]: 36.9 µg/mL (≈ 65.3 µM)
- MIC [24]: > 128 µg/mL
- MIC [25]: > 128 µg/mL
- MIC [26]: > 128 µg/mL
- MIC [27]: > 128 µg/mL
- MIC [28]: 128 µg/mL (≈ 227 µM)
- MIC [29]: 4 µg/mL (≈ 7.08 µM)
- MIC [30]: 4 µg/mL (≈ 7.08 µM)
- MIC [31]: > 128 µg/mL
- MIC [32]: 8 µg/mL (≈ 14.2 µM)
- MIC [33]: 1 µg/mL (≈ 1.77 µM)
- MIC [34]: 4 µg/mL (≈ 7.08 µM)
- MIC [35]: 2 µg/mL (≈ 3.54 µM)
- MIC [36]: > 128 µg/mL
- MIC [37]: > 128 µg/mL
- MIC [38]: 4 µg/mL (≈ 7.08 µM)

Compound: CCC(CC)NC(=N)c1ccc2cc(-c3ccc(Oc4ccc(-c5cc6ccc(C(=N)NC(CC)CC)cc6[nH]5)cc4)cc3)[nH]c2c1
- MIC [1]: 16 µg/mL (≈ 25.6 µM)
- MIC [2]: 16 µg/mL (≈ 25.6 µM)
- MIC [3]: 2 µg/mL (≈ 3.2 µM)
- MIC [4]: 32 µg/mL (≈ 51.2 µM)
- MIC [5]: 2 µg/mL (≈ 3.2 µM)
- MIC [6]: 16 µg/mL (≈ 25.6 µM)
- MIC [7]: 4 µg/mL (≈ 6.4 µM)
- MIC [8]: 2 µg/mL (≈ 3.2 µM)
- MIC [9]: 16 µg/mL (≈ 25.6 µM)
- MIC [10]: 32 µg/mL (≈ 51.2 µM)
- MIC [11]: 16 µg/mL (≈ 25.6 µM)
- MIC [12]: 16 µg/mL (≈ 25.6 µM)
- MIC [13]: 2 µg/mL (≈ 3.2 µM)
- MIC [14]: 16 µg/mL (≈ 25.6 µM)
- MIC [15]: 32 µg/mL (≈ 51.2 µM)
- MIC [16]: 4 µg/mL (≈ 6.4 µM)
- MIC [17]: 4 µg/mL (≈ 6.4 µM)
- MIC [18]: 8 µg/mL (≈ 12.8 µM)
- MIC [19]: 2 µg/mL (≈ 3.2 µM)
- MIC [20]: 16 µg/mL (≈ 25.6 µM)
- MIC [21]: 16 µg/mL (≈ 25.6 µM)
- MIC [22]: 16 µg/mL (≈ 25.6 µM)
- CC50 at 48 h [23]: 25.4 µg/mL (≈ 40.7 µM)
- MIC [24]: 16 µg/mL (≈ 25.6 µM)
- MIC [25]: 16 µg/mL (≈ 25.6 µM)
- MIC [26]: 16 µg/mL (≈ 25.6 µM)
- MIC [27]: 16 µg/mL (≈ 25.6 µM)
- MIC [28]: 16 µg/mL (≈ 25.6 µM)
- MIC [29]: 2 µg/mL (≈ 3.2 µM)
- MIC [30]: 4 µg/mL (≈ 6.4 µM)
- MIC [31]: 32 µg/mL (≈ 51.2 µM)
- MIC [32]: 8 µg/mL (≈ 12.8 µM)
- MIC [33]: 0.5 µg/mL (≈ 0.8 µM)
- MIC [34]: 2 µg/mL (≈ 3.2 µM)
- MIC [35]: 1 µg/mL (≈ 1.6 µM)
- MIC [36]: 16 µg/mL (≈ 25.6 µM)
- MIC [37]: 16 µg/mL (≈ 25.6 µM)
- MIC [38]: 2 µg/mL (≈ 3.2 µM)
